Measured values taken from BindingDB's records for doi:10.1021/jm00371a008 (1984).

These compounds were tested against Folylpolyglutamate synthase (Mus musculus) (assay: Compound was evaluated for the binding affinity to mouse liver folyl polyglutamate synthetase.).
Work on `Nc1nc(N)c2nc(CNc3ccc(C(=O)NC(CS(=O)(=O)O)C(=O)O)cc3)cnc2n1` (centres undefined) [2-{4-[(2,4-Diamino-pteridin-6-ylmethyl)-amino]-benzoylamino}-3-sulfo-propionic acid] yielded a Ki of 43 µM. For `Nc1nc(N)c2nc(CNc3ccc(C(=O)NC(CCS(=O)(=O)O)C(=O)O)cc3)cnc2n1` (centres undefined) [2-{4-[(2,4-Diamino-pteridin-6-ylmethyl)-amino]-benzoylamino}-4-sulfo-butyric acid], the Ki was 59 µM. `CN(Cc1cnc2nc(N)nc(N)c2n1)c1ccc(C(=O)NC(CS(=O)(=O)O)C(=O)O)cc1` (centres undefined) [2-{4-[(2,4-Diamino-pteridin-6-ylmethyl)-methyl-amino]-benzoylamino}-3-sulfo-propionic acid] showed a Ki of 136 µM. In the case of `CN(Cc1cnc2nc(N)nc(N)c2n1)c1ccc(C(=O)NC(CCS(=O)(=O)O)C(=O)O)cc1` (centres undefined) [2-{4-[(2,4-Diamino-pteridin-6-ylmethyl)-methyl-amino]-benzoylamino}-4-sulfo-butyric acid], the Ki is reported as 198 µM.
